Laboratory results: US20210254056A1, “IDENTIFICATION AND TARGETED MODULATION OF GENE SIGNALING NETWORKS” (CAMP4 THERAPEUTICS CORPORATION, priority 2017, published 2021)
Where a name gives a salt, the structure may show the parent alone.

Test system: hepatocytes
Assay: RNA-seq of hepatocytes treated with Phase III failure compounds
Conditions: for significant modulation of expression of disease genes: q≤0.05, genes in the value or listed in the block; for significant changes in gene expression: RNA-seq of Table 36, FPKM≥0.5, log 2(fold-change)≥1, q-value≤0.05; for significant modulation of expression of any of the genes analyzed: p≤0.05
Description: RNA-seq was performed to determine the effects of the compounds on hepatocytes.
Significance was determined by the criteria of FPKM≥0.5, a log 2(fold-change)≥1, and a […].

COc1cc2nccc(Oc3ccc(NC(=O)Nc4cc(C)on4)c(Cl)c3)c2cc1OC [Tivozanib]
RNA-seq results, CYP2B6 expression: 0.16
RNA-seq results, CYP2C19 expression: −1.36
RNA-seq results, CYP2D6 expression: 0.21
RNA-seq results, CYP3A4 expression: 0.50
RNA-seq results, CYP7B1 expression: −1.02
RNA-seq results, CYP39A1 expression: 0.94
RNA-seq results: CYP2B6 expression: 0.24
RNA-seq results: CYP2C19 expression: 0.27
RNA-seq results: CYP2D6 expression: −0.3
RNA-seq results: CYP3A4 expression: 0.18
RNA-seq results: CYP7B1 expression: −0.17
RNA-seq results: CYP39A1 expression: 0.06
significant modulation of expression of disease genes (RNA-seq, hepatocytes): significantly (q≤0.05) modulate expression
effect on disease gene expression (RNA-seq, hepatocytes): effect on expression of too many disease genes
RNA-seq results: A1BG expression (gene A1BG, hepatocytes): 0.51
RNA-seq results: AGTR1 expression (gene AGTR1, hepatocytes): −0.47
RNA-seq results: AGXT expression (gene AGXT, hepatocytes): 0.04
RNA-seq results: AHI1 expression (gene AHI1, hepatocytes): 0.24
RNA-seq results: AMPD3 expression (gene AMPD3, hepatocytes): −0.18
RNA-seq results: AMT expression (gene AMT, hepatocytes): 0.50
RNA-seq results: ANGPTL3 expression (gene ANGPTL3, hepatocytes): −1.56
RNA-seq results: ANKS4B expression (gene ANKS4B, hepatocytes): −0.68
RNA-seq results: ANKS6 expression (gene ANKS6, hepatocytes): −0.21
RNA-seq results: ANPEP expression (gene ANPEP, hepatocytes): −1.04
RNA-seq results: AOC2 expression (gene AOC2, hepatocytes): −0.20
RNA-seq results: APOA2 expression (gene APOA2, hepatocytes): 0.31
RNA-seq results: APOA5 expression (gene APOA5, hepatocytes): −0.09
RNA-seq results: APOB expression (gene APOB, hepatocytes): −0.40
RNA-seq results: COG5 expression (gene COG5, hepatocytes): −0.02
RNA-seq results: COG6 expression (gene COG6, hepatocytes): −0.09
RNA-seq results: COL1A1 expression (gene COL1A1, hepatocytes): −0.35
RNA-seq results: COX6A1 expression (gene COX6A1, hepatocytes): −0.05
RNA-seq results: CP expression (gene CP, hepatocytes): 0.36
RNA-seq results: CPS1 expression (gene CPS1, hepatocytes): 0.2
RNA-seq results: CPT1A expression (gene CPT1A, hepatocytes): 0.08
RNA-seq results: CPT2 expression (gene CPT2, hepatocytes): 0.07
RNA-seq results: CROT expression (gene CROT, hepatocytes): −0.02
RNA-seq results: CSPP1 expression (gene CSPP1, hepatocytes): 0.35
RNA-seq results: CTC1 expression (gene CTC1, hepatocytes): −0.04
RNA-seq results: CTDSP2 expression (gene CTDSP2, hepatocytes): 0
RNA-seq results: CTH expression (gene CTH, hepatocytes): 0.11
RNA-seq results: CTNS expression (gene CTNS, hepatocytes): −0.16
RNA-seq results: CTSF expression (gene CTSF, hepatocytes): −0.1
RNA-seq results: CTSK expression (gene CTSK, hepatocytes): 0.32
RNA-seq results: CYB5A expression (gene CYB5A, hepatocytes): 0.09
RNA-seq results: CYB5R3 expression (gene CYB5R3, hepatocytes): −0.25
RNA-seq results: CYP27A1 expression (gene CYP27A1, hepatocytes): 0.02
RNA-seq results: DAO expression (gene DAO, hepatocytes): 0.02
RNA-seq results: DBT expression (gene DBT, hepatocytes): 0.18
RNA-seq results: DCDC2 expression (gene DCDC2, hepatocytes): 0.25
RNA-seq results: DCXR expression (gene DCXR, hepatocytes): −0.35
RNA-seq results: FABP1 expression (gene FABP1, hepatocytes): 0.25
RNA-seq results: FADD expression (gene FADD, hepatocytes): −0.32
RNA-seq results: FAM111A expression (gene FAM111A, hepatocytes): 0.18
RNA-seq results: FAM111B expression (gene FAM111B, hepatocytes): 0.01
RNA-seq results: FAN1 expression (gene FAN1, hepatocytes): 0.06
RNA-seq results: FARS2 expression (gene FARS2, hepatocytes): −0.06
RNA-seq results: FASLG expression (gene FASLG, hepatocytes): −0.16
RNA-seq results: FGA expression (gene FGA, hepatocytes): 0.15
RNA-seq results: FGD1 expression (gene FGD1, hepatocytes): −0.42
RNA-seq results: FGFR2 expression (gene FGFR2, hepatocytes): 0.36
RNA-seq results: FIG4 expression (gene FIG4, hepatocytes): 0.29
RNA-seq results: FIS1 expression (gene FIS1, hepatocytes): 0.01
RNA-seq results: FTCD expression (gene FTCD, hepatocytes): −0.28
RNA-seq results: FTH1 expression (gene FTH1, hepatocytes): −0.33
RNA-seq results: FUCA1 expression (gene FUCA1, hepatocytes): 0.06
RNA-seq results: FXN expression (gene FXN, hepatocytes): −0.37
RNA-seq results: G6PC3 expression (gene G6PC3, hepatocytes): −0.21
RNA-seq results: G6PC expression (gene G6PC, hepatocytes): −0.01
RNA-seq results: G6PD expression (gene G6PD, hepatocytes): −0.09
RNA-seq results: GALK1 expression (gene GALK1, hepatocytes): −0.45
RNA-seq results: GALK2 expression (gene GALK2, hepatocytes): −0.06
RNA-seq results: GALT expression (gene GALT, hepatocytes): 0
RNA-seq results: GATA6 expression (gene GATA6, hepatocytes): −0.71
RNA-seq results: GATM expression (gene GATM, hepatocytes): −0.01
RNA-seq results: GBA expression (gene GBA, hepatocytes): 0.02
RNA-seq results: GBE1 expression (gene GBE1, hepatocytes): −0.06
RNA-seq results: GCH1 expression (gene GCH1, hepatocytes): −0.12
RNA-seq results: GCKR expression (gene GCKR, hepatocytes): 0.14
RNA-seq results: GCLC expression (gene GCLC, hepatocytes): −0.06
RNA-seq results: GOSH expression (gene GOSH, hepatocytes): −1.23
RNA-seq results: RRM2B (gene RRM2B, hepatocytes): −0.32
RNA-seq results: RSAD1 (gene RSAD1, hepatocytes): 0.01
RNA-seq results: SAMHD1 (gene SAMHD1, hepatocytes): −1.92
RNA-seq results: SC5D (gene SC5D, hepatocytes): 0.47
RNA-seq results: SCARB1 (gene SCARB1, hepatocytes): −0.67
RNA-seq results: SCN9A (gene SCN9A, hepatocytes): −0.32
RNA-seq results: SDCCAG8 (gene SDCCAG8, hepatocytes): −0.50
RNA-seq results: SEPN1 (gene SEPN1, hepatocytes): −1.37
RNA-seq results: SERAC1 (gene SERAC1, hepatocytes): −0.31
RNA-seq results: SERPINA1 (gene SERPINA1, hepatocytes): 0.12
RNA-seq results: SERPING1 (gene SERPING1, hepatocytes): 0.14
RNA-seq results: SERPINI1 (gene SERPINI1, hepatocytes): −0.06
RNA-seq results: SETBP1 (gene SETBP1, hepatocytes): −0.38
RNA-seq results: SFXN4 (gene SFXN4, hepatocytes): 0.25
RNA-seq results: SLC10A1 (gene SLC10A1, hepatocytes): −0.16
RNA-seq results: SLC10A3 (gene SLC10A3, hepatocytes): −0.82
RNA-seq results: SLC10A5 (gene SLC10A5, hepatocytes): −1.06
RNA-seq results: SLC10A7 (gene SLC10A7, hepatocytes): −0.12
RNA-seq results: SLC11A2 (gene SLC11A2, hepatocytes): −0.44
RNA-seq results: SLC19A1 (gene SLC19A1, hepatocytes): −0.33
RNA-seq results: SLC19A2 (gene SLC19A2, hepatocytes): −0.15
RNA-seq results: SLC19A3 (gene SLC19A3, hepatocytes): −0.16
RNA-seq results: SLC22A1 (gene SLC22A1, hepatocytes): 0.24
RNA-seq results: SLC22A5 (gene SLC22A5, hepatocytes): −0.38
RNA-seq results: SLC25A1 (gene SLC25A1, hepatocytes): −0.61
RNA-seq results: SLC25A10 (gene SLC25A10, hepatocytes): −0.64
RNA-seq results: SLC25A12 (gene SLC25A12, hepatocytes): −0.97
RNA-seq results: SLC25A13 (gene SLC25A13, hepatocytes): −0.53
RNA-seq results: SLC25A15 (gene SLC25A15, hepatocytes): −0.18
RNA-seq results: SLC25A19 (gene SLC25A19, hepatocytes): −0.47
RNA-seq results: SLC25A20 (gene SLC25A20, hepatocytes): −1.32
RNA-seq results: SLC25A29 (gene SLC25A29, hepatocytes): −0.54
RNA-seq results: SLC25A32 (gene SLC25A32, hepatocytes): −0.47

CC(C)(CO)c1cc2cc(NC(=O)C3(c4ccc5c(c4)OC(F)(F)O5)CC3)c(F)cc2n1C[C@@H](O)CO [VX-661 (tezacaptor), tezacaptor]
significant changes in gene expression: not observed to cause any significant changes in gene expression
significant modulation of expression of any of the genes analyzed (RNA-seq, hepatocytes): not observed to significantly modulate expression

Fc1ccc(C(OCCN2CCN(CCCc3ccccc3)CC2)c2ccc(F)cc2)cc1 [Vanoxerine (dihydrochloride), Vanoxerine]
significant modulation of expression of disease genes (RNA-seq, hepatocytes): significantly (q≤0.05) modulate expression of HMOX1
B2M expression, RNA-seq result (gene B2M, hepatocytes): −0.07
B9D2 expression, RNA-seq result (gene B9D2, hepatocytes): 0.29
BAAT expression, RNA-seq result (gene BAAT, hepatocytes): 0.01
BBOX1 expression, RNA-seq result (gene BBOX1, hepatocytes): 0.01
BBS10 expression, RNA-seq result (gene BBS10, hepatocytes): −0.41
BCHE expression, RNA-seq result (gene BCHE, hepatocytes): −0.5
BCKDHB expression, RNA-seq result (gene BCKDHB, hepatocytes): −0.06
BCKDK expression, RNA-seq result (gene BCKDK, hepatocytes): 0.02
BCO1 expression, RNA-seq result (gene BCO1, hepatocytes): 0.08
BCR expression, RNA-seq result (gene BCR, hepatocytes): 0.04
BLNK expression, RNA-seq result (gene BLNK, hepatocytes): 0.18
BLOC1S3 expression, RNA-seq result (gene BLOC1S3, hepatocytes): 0.46
BMPR1A expression, RNA-seq result (gene BMPR1A, hepatocytes): 0
BRAF expression, RNA-seq result (gene BRAF, hepatocytes): 0.2
BSCL2 expression, RNA-seq result (gene BSCL2, hepatocytes): −0.45
BTD expression, RNA-seq result (gene BTD, hepatocytes): −0.16
C4A expression, RNA-seq result (gene C4A, hepatocytes): 0.05
C9 expression, RNA-seq result (gene C9, hepatocytes): −0.2
C10orf10 expression, RNA-seq result (gene C10orf10, hepatocytes): 0.02
C10orf11 expression, RNA-seq result (gene C10orf11, hepatocytes): 0.18
C15orf41 expression, RNA-seq result (gene C15orf41, hepatocytes): 0.13
CA2 expression, RNA-seq result (gene CA2, hepatocytes): 0.53
CA5A expression, RNA-seq result (gene CA5A, hepatocytes): 0.24
CA12 expression, RNA-seq result (gene CA12, hepatocytes): 0.77
CAV1 expression, RNA-seq result (gene CAV1, hepatocytes): −0.47
CCND1 expression, RNA-seq result (gene CCND1, hepatocytes): −0.33
CD46 expression, RNA-seq result (gene CD46, hepatocytes): −0.14
CD81 expression, RNA-seq result (gene CD81, hepatocytes): 0.3
CD320 expression, RNA-seq result (gene CD320, hepatocytes): 0.17
CDAN1 expression, RNA-seq result (gene CDAN1, hepatocytes): 0.25
CDH1 expression, RNA-seq result (gene CDH1, hepatocytes): −0.29
CEP19 expression, RNA-seq result (gene CEP19, hepatocytes): −0.07
CEP83 expression, RNA-seq result (gene CEP83, hepatocytes): −0.12
CEP164 expression, RNA-seq result (gene CEP164, hepatocytes): 0.12
CEP290 expression, RNA-seq result (gene CEP290, hepatocytes): −0.14
CFB expression, RNA-seq result (gene CFB, hepatocytes): 0.02
CFHR2 expression, RNA-seq result (gene CFHR2, hepatocytes): −0.46
CHRM3 expression, RNA-seq result (gene CHRM3, hepatocytes): −0.06
CIDEC expression, RNA-seq result (gene CIDEC, hepatocytes): 0.1
CLDN1 expression, RNA-seq result (gene CLDN1, hepatocytes): −0.37
COG1 expression, RNA-seq result (gene COG1, hepatocytes): 0.06

Fc1ccc(C(OCCN2CCN(CCCc3ccccc3)CC2)c2ccc(F)cc2)cc1 [Vanoxerine]
Number (#) of genes having significantly changed expression (RNA-seq, Phase III failure compounds, hepatocytes, significance: FPKM≥0.5, log 2(fold-change)≥1, q-value≥0.05 (so in the source)): 17

COC[C@@H](c1ccc(C(F)(F)F)cc1)N1CCN(C2(C)CCN(C(=O)c3c(C)ncnc3C)CC2)C[C@@H]1C [Vicriviroc (maleate), Vicriviroc]
significant changes in gene expression: not observed to cause any significant changes in gene expression
significant modulation of expression of any of the genes analyzed (RNA-seq, hepatocytes): not observed to significantly modulate expression
